Assay results from US20240327320A1, “NOVEL ROUTES OF CHEMICAL SYNTHESIS OF 20S(OH)D3, 20S,25(OH)2D3, 20S,23S(OH)2D3, AND 20S,23R(OH)2D3 AND THEIR MODIFICATION OF THE IMMUNE ACTIVITY OF PBMCS” (United State Government as represen ted by the Department …, priority 2023, published 2024).

What was measured:
[1] = biological target: T1, Mouse CYP27B1 (Mus musculus, UniProt O35084); assay: CYP27B1 activity on secosteroids in phospholipid vesicles (1α-hydroxylation); format: in vitro ADME; conditions: for 1α-hydroxylase activity: 0.025 mol secosteroid/mol phospholipid, CYP27B1 0.2 μM, mean±SD, n=3; for rate / efficiency of 1α-hydroxylation by CYP27B1, in words: phospholipid vesicles, mouse CYP27B1
T1 construct: made in house; host or cells: E. coli
T1 sequence (O35084 1-507): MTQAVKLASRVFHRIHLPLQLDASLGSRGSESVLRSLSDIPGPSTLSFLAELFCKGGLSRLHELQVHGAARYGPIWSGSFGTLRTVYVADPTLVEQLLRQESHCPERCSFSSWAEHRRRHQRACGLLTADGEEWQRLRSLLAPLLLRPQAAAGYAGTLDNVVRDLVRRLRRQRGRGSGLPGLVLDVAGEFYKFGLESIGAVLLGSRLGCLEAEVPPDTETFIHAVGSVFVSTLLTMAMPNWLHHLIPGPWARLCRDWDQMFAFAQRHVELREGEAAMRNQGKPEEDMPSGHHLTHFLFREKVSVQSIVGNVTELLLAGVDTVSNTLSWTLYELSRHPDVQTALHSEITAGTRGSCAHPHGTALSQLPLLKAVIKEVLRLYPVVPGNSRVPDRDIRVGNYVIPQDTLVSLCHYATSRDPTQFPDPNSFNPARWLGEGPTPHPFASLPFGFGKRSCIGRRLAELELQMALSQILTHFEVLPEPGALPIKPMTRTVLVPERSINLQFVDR
Description: Mouse CYP27B1 was expressed in E. coli and purified (Tang E K, et. al., (2010) Drug Metabolism and Disposition, 38(9) 1553-9). CYP27B1 activity was measured on substrate incorporated into the membrane of phospholipid vesicles as described previously. Briefly, phospholipid vesicles were prepared by sonication of dioleoyl phosphatidylcholine, cardiolipin and secosteroid. Vesicles (510 μM phospholipid) were then incubated at 37° C. with CYP27B1 (0.2 μM) in buffer comprising 20 mM Hepes, pH 7.4, 100 mM NaCl, 0.1 mM EDTA, 0.1 mM and dithiothreitol, adrenodoxin (15 μM), adrenodoxin reductase (0.4 μM), glucose-6-phosphate (2 mM), glucose-6-phosphate dehydrogenase (2 U/mL) and NAPDH (50 μM) in a volume of 0.5 ml. After reaction (5 or 20 min), the incubation mixture was extracted 3-times with 2.5 ml dichloromethane, extracts combined, dried under N2 gas and dissolved in 64% methanol. Samples were analysed by reverse phase HPLC on a Grace Alltima column (25×0.46 cm) using a gradient of 64 to 100% methanol for 15 min followed by 100% methanol for 30 min, at a flow rate of 0.5 ml/min. Metabolites were detected with a UV detector at 265 nm.
All four chemically synthesized secosteroids were converted to their expected 1α-hydroxy derivatives by CYP27B1, and identified on the basis of previous studies on the enzymatically and/or chemically derived substrates (Li W, et. al., (2010) Steroids 75(12) 926-35, Tang E K, et. al., (2013) Drug metabolism and disposition: the biological fate of chemicals 41(5) 1112-24, Lin Z, et. al., (2016) J Med Chem 59(10) 5102-8, Tang E K, et. al., (2010) Drug metabolism and disposition: the biological fate of chemicals 38(9) 1553-9). Secosteroids were incorporated into phospholipid vesicles at a ratio of 0.025 mol secosteroid/mol phospholipid and incubated with mouse CYP27B1 (0.2 μM) for 20 min for all substrates except 20S,25(OH)2D3 which was incubated for 5 min. Extracted samples were analyzed by reverse-phase HPLC. Data are mean±SD, n=3. […] In summary, the efficiency of metabolism of D3 derivatives by CYP27B1 is as follows: 20S,25(OH)2D3>>20S,23S(OH)2D3>20S(OH)D3=20S,23R(OH)2D3.

[2] = tested on: CYP24A1 (downstream target of the activated VDR); assay: CYP24A1 expression, qPCR of downstream enzymes; format: cell-based; conditions: FIG. 8C
Description: RNA isolation and reverse transcription were performed as described previously (Slominski A T, et. al., (2021) Sci Rep 11(1) 8002). Quantitative RT-PCR was carried out using Sybr green Master Mix (Thermo Scientific, Waltham, MA), in triplicates as previously described (Slominski A T, et. al., (2021) Sci Rep 11(1) 8002; Janjetovic Z, et. al., (2014) J Pineal Res 57(1) 90-102). Human epidermal keratinocytes (HEKn) isolated from foreskin of white neonates were cultured until the third passage before treatment as described in the literature (Chaiprasongsuk A, et. al., (2019) Redox Biol 24 101206; Janjetovic Z, et. al., (2009) PloS one 4(6) e5988). Cells were treated with vitamin D3 derivatives for 8 h or 24 h and harvested for RNA isolation. Approximately 300 ng of RNA was used for cDNA synthesis and an equal amount of cDNA was used for PCR reactions. Cyclophilin B or GAPDH was used as an internal control. Primers sequences are listed in (Chaiprasongsuk A, et. al., (2020) Free Radic Biol Med 155 87-9845, Slominski A T, et. al., (2017) Sci Rep 7(1) 11434). Reactions were done in triplicate.
To better define the properties of the newly synthesized secosteroids, their activities on the VDR, AhR and LXR were tested by performing functional assays which were further validated by qPCR of downstream enzymes (FIGS. 8A-F) and molecular modeling (FIG. 9-13). Binding affinities of top-scored docking complexes of vitamin D3 hydroxy derivatives with VDR, AhR, LXRs (LXRα, LXRβ) and RORs (RORα, RORγ) from molecular docking are presented in FIG. 9, known ligands for each receptor were used as controls.

rate / efficiency of 1α-hydroxylation by CYP27B1, in words [1] | 1α-hydroxylase activity ([1]; incubated 5 min) | Compound | 1α-hydroxylase activity ([1]; incubated 20 min) | CYP24A1 expression [2]
relatively poorer substrate for CYP27B1 |  | C=C1CC[C@H](O)C/C1=C/C=C1\CCC[C@@]2(C)[C@H]1CC[C@@H]2[C@@](C)(O)CCCC(C)C [20S(OH)D3, (20S)-20-Hydroxyvitamin D3] | 0.135 ± 0.005 mol product/min/mol CYP27B1 | 
high rate of 1α-hydroxylation | 7.98 ± 0.24 mol product/min/mol CYP27B1 | C=C1CC[C@H](O)C/C1=C/C=C1\CCC[C@@]2(C)[C@H]1CC[C@@H]2[C@@](C)(O)CCCC(C)(C)O [20S,25(OH)2D3, (20S)-20,25-Dihydroxyvitamin D3] |  | much greater stimulation of CYP24A1 expression than 20S(OH)D3
 |  | C=C1CC[C@H](O)C/C1=C/C=C1\CCC[C@@]2(C)[C@H]1CC[C@@H]2[C@@](C)(O)C[C@H](O)CC(C)C [20S,23R(OH)2D3, (20S,23R)-20,23-Dihydroxyvitamin D3] | 0.117 ± 0.027 mol product/min/mol CYP27B1 | significantly less expression than 1α,25(OH)2D3

Compound | rate / efficiency of 1α-hydroxylation by CYP27B1, in words [1] | 1α-hydroxylase activity ([1]; incubated 5 min) | 1α-hydroxylase activity ([1]; incubated 20 min) | CYP24A1 expression [2]
C=C1CC[C@H](O)C/C1=C/C=C1\CCC[C@@]2(C)[C@H]1CC[C@@H]2[C@@](C)(O)C[C@@H](O)CC(C)C [20S,23S(OH)2D3, (20S,23S)-20,23-Dihydroxyvitamin D3] | metabolized approximately twice as fast as the non-natural 20S,23R-isomer |  | 0.258 ± 0.020 mol product/min/mol CYP27B1 | significantly less expression than 1α,25(OH)2D3
